{
  "source": "patent US20210186020A1",
  "about": "“AGRICULTURAL COMPOSITIONS AND METHODS OF USE THEREOF” (Valent U.S.A. LLC, priority 2019, published 2021)",
  "key": {"[1]": {"system": "barnyard grass", "assay": "Spray-chamber efficacy of S-3100 with or without fertilizer on potted barnyard grass", "type": "in vivo, Echinochloa crus-galli", "settings": "barnyard grass 10 inches, S-3100 20 grams/ha, Fertilizer 14 liters/ha, 1% v/v Agridex (combination also 1% v/v Intact)", "description": "4 trials were conducted on the efficacy of ethyl [3-[2-chloro-4-fluoro-5-(1-methyl-6-trifluoromethyl-2,4-dioxo-1,2,3,4-tetrahydropyrimidin-3-yl)phenoxy]-2-pyridyloxy]acetate (“S-3100”) with or without a mannitol and/or sorbitol comprising fertilizer. Specifically, 4 pots of barnyard grass were grown to 10 inches in height. These pots were placed in a spray chamber for treatment. All compositions contained 1% v/v of Agridex®. The composition containing S-3100 and fertilizer contained 1% v/v of Intact™. Treatments and results can be found in Table 1, below."}, "[2]": {"system": "broadleaf grass", "assay": "Spray-chamber efficacy of S-3100 with or without fertilizer on potted broadleaf grass", "type": "in vivo", "settings": "broadleaf grass 10 inches, S-3100 20 grams/ha, Fertilizer 14 liters/ha, 1% v/v Agridex (combination also 1% v/v Intact)", "description": "4 trials were conducted on the efficacy of ethyl [3-[2-chloro-4-fluoro-5-(1-methyl-6-trifluoromethyl-2,4-dioxo-1,2,3,4-tetrahydropyrimidin-3-yl)phenoxy]-2-pyridyloxy]acetate (“S-3100”) with or without a mannitol and/or sorbitol comprising fertilizer. Specifically, 4 pots of broadleaf grass were grown to 10 inches in height. These pots were placed in a spray chamber for treatment. All compositions contained 1% v/v of Agridex®. The composition containing S-3100 and fertilizer contained 1% v/v of Intact™. Treatments and results can be found in Table 2, below."}, "[3]": {"system": "giant foxtail", "assay": "Spray-chamber efficacy of S-3100 with or without fertilizer on potted giant foxtail", "type": "in vivo, Setaria faberi", "settings": "giant foxtail 10 inches, S-3100 20 grams/ha, Fertilizer 14 liters/ha, 1% v/v Agridex (combination also 1% v/v Intact)", "description": "4 trials were conducted on the efficacy of ethyl [3-[2-chloro-4-fluoro-5-(1-methyl-6-trifluoromethyl-2,4-dioxo-1,2,3,4-tetrahydropyrimidin-3-yl)phenoxy]-2-pyridyloxy]acetate (“S-3100”) with or without a mannitol and/or sorbitol comprising fertilizer. Specifically, 4 pots of giant foxtail were grown to 10 inches in height. These pots were placed in a spray chamber for treatment. All compositions contained 1% v/v of Agridex®. The composition containing S-3100 and fertilizer contained 1% v/v of Intact™. Treatments and results can be found in Table 3, below."}, "[4]": {"system": "volunteer corn", "assay": "Spray-chamber efficacy of S-3100 with or without fertilizer on potted volunteer corn", "type": "in vivo, Zea mays", "settings": "volunteer corn 15 inches, S-3100 20 grams/ha, Fertilizer 14 liters/ha, 1% v/v Agridex (combination also 1% v/v Intact)", "description": "4 trials were conducted on the efficacy of ethyl [3-[2-chloro-4-fluoro-5-(1-methyl-6-trifluoromethyl-2,4-dioxo-1,2,3,4-tetrahydropyrimidin-3-yl)phenoxy]-2-pyridyloxy]acetate (“S-3100”) with or without a mannitol and/or sorbitol comprising fertilizer. Specifically, 4 pots of volunteer corn were grown to 15 inches in height. These pots were placed in a spray chamber for treatment. All compositions contained 1% v/v of Agridex®. The composition containing S-3100 and fertilizer contained 1% v/v of Intact™. Treatments and results can be found in Table 4, below."}},
  "data": [
    {"smiles": "CCOC(=O)COc1ncccc1Oc1cc(-n2c(=O)cc(C(F)(F)F)n(C)c2=O)c(F)cc1Cl", "note": "[S-3100, ethyl [3-[2-chloro-4-fluoro-5-(1-methyl-6-trifluoromethyl-2,4-dioxo-1,2,3,4-tetrahydropyrimidin-3-yl)phenoxy]-2-pyridyloxy]acetate]", "values": [
      {"measurement": "% control, 3 Days After Treatment", "setting": "[1]; 3 DAT", "value": 73.3, "unit": "%"},
      {"measurement": "% control, 7 Days After Treatment", "setting": "[1]; 7 DAT", "value": 85.2, "unit": "%"},
      {"measurement": "% control, 13 Days After Treatment", "setting": "[1]; 13 DAT", "value": 84.7, "unit": "%"},
      {"measurement": "% control, 3 Days After Treatment", "setting": "[2]; 3 DAT", "value": 75.0, "unit": "%"},
      {"measurement": "% control, 7 Days After Treatment", "setting": "[2]; 7 DAT", "value": 93.0, "unit": "%"},
      {"measurement": "% control, 14 Days After Treatment", "setting": "[2]; 14 DAT", "value": 84.2, "unit": "%"},
      {"measurement": "% control, 3 Days After Treatment", "setting": "[3]; 3 DAT", "value": 76.7, "unit": "%"},
      {"measurement": "% control, 7 Days After Treatment", "setting": "[3]; 7 DAT", "value": 95.5, "unit": "%"},
      {"measurement": "% control, 14 Days After Treatment", "setting": "[3]; 14 DAT", "value": 96.1, "unit": "%"},
      {"measurement": "% control, 3 Days After Treatment", "setting": "[4]; 3 DAT", "value": 65.0, "unit": "%"},
      {"measurement": "% control, 7 Days After Treatment", "setting": "[4]; 7 DAT", "value": 59.2, "unit": "%"},
      {"measurement": "% control, 14 Days After Treatment", "setting": "[4]; 14 DAT", "value": 56.7, "unit": "%"}
    ]}
  ]
}
